Results: patent US7919517B2, “Indazole derivatives” (Kyowa Hakko Kirin Co., Ltd., priority 2003, dated 2011)
Where a name gives a salt, the structure may show the parent alone.

Columns and labels:
Assay type in all cases: cell-based
[1] = system: human acute myeloid leukemia cell line ML-1; assay: Cytostatic activity on leukemia cell line ML-1 (WST-1); conditions: 72 hours, ML-1 cells; for inhibition at 10 µM: Homo sapiens, ML1, 10 μmol/L, read-out: cytostatic rate ML-1 (%) (10 μmol/L)
Procedure: (§1) The cytostatic rates of a test compound on human acute myeloid leukemia cell lines MV-4-11 and ML-1, and human chronic myeloid leukemia cell line K562 were determined in the following manner.
(§2) Each cell was cultured using Roswell Park Memorial Institute's Medium (RPMI) 1640 (Gibco, Catalog No. 11875-093) containing 10% fetal bovine serum (Gibco, Catalog No. 10437-028) and 1% penicillin/streptomycin (1:1) (Gibco, Catalog No. 15140-122). Each 80 μL of the MV-4-11 cell having a concentration of 7.5×10^4 cells/mL (or the ML-1 cell or K562 cell having a concentration of 2.5×10^4 cells/mL) was inoculated to wells of a TC MICROWELL 96U plate (Nalge Nunc International, Catalog No. 163320) and was cultured in a 5% carbon dioxide gas incubator at 37° C. for 4 hours. As a blank, only RPMI medium (80 μL) was added to a well. Each 20 μL of a solution of the test compound in dimethyl sulfoxide (DMSO) which was prepared to make the final concentration to 10 μmol/L, was added to the MV-4-11 cell, ML-1 cell and K562 cell, respectively. Each 20 μL of DMSO was added to the control well and the blank well to […]. After adding the test compound, the cells were incubated in a 5% carbon dioxide gas incubator at 37° C. for 72 hours. After adding 20 μL of WST-1 reagent {4-[3-(4-iodophenyl)-2-(4-nitrophenyl)-2H-5-tetrazolio]-1,3-benzene disulfonate sodium salt} (Roche Diagnostics K.K., Catalog No. 1644807) diluted to 50% with RPMI medium, the cells were further incubated at 37° C. for 2 hours. Then, the absorbances at 450 nm (reference wavelength: 690 nm) were determined with a microplate spectrophotometer SPECTRA max 340PC (Molecular Devices Corporation). The relative growth (%) of a well to which the test compound had been added was determined while setting the absorbance of a well to which not the test compound but DMSO alone had been added (control) at 100% and that of a well containing RPMI medium alone at 0%. The cytostatic rate (%) of the test compound was determined by subtracting the calculated relative growth from 100.

[2] = system: human chronic myeloid leukemia cell line K562; assay: Cytostatic activity on leukemia cell line K562 (WST-1); conditions: 72 hours, K562 cells; for inhibition at 10 µM: Homo sapiens, 10 μmol/L, read-out: cytostatic rate K562 (%) (10 μmol/L)
Procedure: as §1, §2

[3] = system: human colon cancer cell line Colo205; assay: Cytostatic activity on solid carcinoma cell line Colo205 (WST-1); conditions: Homo sapiens, COLO 205; 10 μmol/L, 72 hours, Colo205 cells; read-out: cytostatic rate Colo205 (%) (10 μmol/L)
Procedure: as §2
The cytostatic rate of a test compound on the human colon cancer cell line Colo205 was determined in the following manner.
The cell was cultured using Roswell Park Memorial Institute's Medium (RPMI) 1640 (Gibco, Catalog No. 11875-093) containing 10% fetal bovine serum (Gibco, Catalog No. 10437-028) and 1% penicillin/streptomycin (1:1) (Gibco, Catalog No. 15140-122). Each 80 μL of the Colo205 having a concentration of 1.25×10^4 cells/mL was inoculated to wells of a TC MICROWELL 96F plate (Nalge Nunc International, Catalog No. 167008) and was cultured in a 5% carbon dioxide gas incubator at 37° C. for 24 hours. As a blank, only RPMI (80 μL) was added to a well. Each 20 μL of a solution of the test compound in DMSO which was prepared to make the final concentration to 10 μmol/L, was added to the Colo205 cell. Each 20 μL of DMSO was added to the control well and the blank well to […]. After adding the test compound, the cell was incubated in a 5% carbon dioxide gas incubator at 37° C. for 72 hours. The cytostatic rate (%) was then determined in the same way as the leukemia cell lines.

[4] = system: human acute myeloid leukemia cell line MV-4-11; assay: Cytostatic activity on leukemia cell line MV-4-11 (WST-1); conditions: 72 hours, MV-4-11 cells; for inhibition at 10 µM: Homo sapiens, MV4-11, 10 μmol/L, read-out: cytostatic rate MV-4-11 (%) (10 μmol/L)
Procedure: as §1, §2

COCC(=O)N1CCN(C(=O)c2ccc(/C=C/c3n[nH]c4ccccc34)cc2)CC1 [Compound 65, (E)-4-methoxyacetyl-1-{4-[2-(1H-indazol-3-yl)vinyl]benzoyl}piperazine]
inhibition at 10 µM [1]: 86% | inhibition at 10 µM [2]: 85% | inhibition at 10 µM [3]: 88% | inhibition at 10 µM [4]: 97%

NC1CCN(C(=O)c2ccc(/C=C/c3n[nH]c4ccccc34)cc2)CC1 [Compound 64, (E)-1-{4-[2-(1H-indazol-3-yl)vinyl]benzoyl}-4-aminopiperidine]
inhibition at 10 µM [1]: 89% | inhibition at 10 µM [2]: 91% | inhibition at 10 µM [3]: 94% | inhibition at 10 µM [4]: 98%

Cl.O=C(c1ccc(/C=C/c2n[nH]c3ccccc23)cc1)N1CCC2(CC1)OCCO2 [Compound 16, (E)-4-ethylenedioxy-1-{4-[2-(1H-indazol-3-yl)vinyl]benzoyl}piperidine hydrochloride]
cytostatic rate ML-1 (%) (10 μmol/L) [1]: 97% | cytostatic rate K562 (%) (10 μmol/L) [2]: 94% | cytostatic rate MV-4-11 (%) (10 μmol/L) [4]: 89%

O=C(c1ccc(/C=C/c2n[nH]c3ccccc23)cc1)N1CCC(O)CC1 [Compound 87, (E)-1-{4-[2-(1H-indazol-3-yl)vinyl]benzoyl}-4-hydroxypiperidine]
inhibition at 10 µM [1]: 88% | inhibition at 10 µM [2]: 76% | inhibition at 10 µM [3]: 86% | inhibition at 10 µM [4]: 99%

CCN(CC)C(=O)C1CCN(C(=O)c2ccc(/C=C/c3n[nH]c4ccccc34)cc2)CC1 [Compound 81, (E)-N,N-diethyl-1-{4-[2-(1H-indazol-3-yl)vinyl]benzoyl}piperidine-4-carboxamide]
inhibition at 10 µM [1]: 77% | inhibition at 10 µM [2]: 95% | inhibition at 10 µM [3]: 85% | inhibition at 10 µM [4]: 98%

O=C(c1ccc(/C=C/c2n[nH]c3ccccc23)cc1)N1CCN(C(=O)N2CCOCC2)CC1 [Compound 41, (E)-1-{4-[2-(1H-indazol-3-yl)vinyl]benzoyl}-4-(morpholinocarbonyl)piperazine]
inhibition at 10 µM [1]: 83% | inhibition at 10 µM [2]: 95% | inhibition at 10 µM [3]: 90% | inhibition at 10 µM [4]: 97%

O=C(NN1CCN(C(=O)c2ccc(/C=C/c3n[nH]c4ccccc34)cc2)CC1)N1CCOCC1 [Compound 150, (E)-1-{4-[2-(1H-indazol-3-yl)vinyl]benzoyl}-4-(morpholinocarbonylamino)piperazine]
inhibition at 10 µM [1]: 67% | inhibition at 10 µM [2]: 90% | inhibition at 10 µM [3]: 88% | inhibition at 10 µM [4]: 97%

CS(=O)(=O)N1CCN(C(=O)c2ccc(/C=C/c3n[nH]c4ccccc34)cc2)CC1 [Compound 47, (E)-1-{4-[2-(1H-indazol-3-yl)vinyl]benzoyl}-4-(methanesulfonyl)piperazine]
inhibition at 10 µM [1]: 88% | inhibition at 10 µM [2]: 88% | inhibition at 10 µM [3]: 91% | inhibition at 10 µM [4]: 97%

O=C(c1ccc(/C=C/c2n[nH]c3ccccc23)cc1)N1CCCNCC1 [Compound 85, (E)-1-{4-[2-(1H-indazol-3-yl)vinyl]benzoyl}homopiperazine dihydrochloride]
inhibition at 10 µM [1]: 78% | inhibition at 10 µM [2]: 90% | inhibition at 10 µM [3]: 89% | inhibition at 10 µM [4]: 99%

CN1CCC(C(=O)N2CCN(C(=O)c3ccc(/C=C/c4n[nH]c5ccccc45)cc3)CC2)CC1 [Compound 143, (E)-4-[(1-methylpiperidin-4-yl)carbonyl]-1-{4-[2-(1H-indazol-3-yl)vinyl]benzoyl}piperazine]
inhibition at 10 µM [1]: 84% | inhibition at 10 µM [2]: 95% | inhibition at 10 µM [3]: 92% | inhibition at 10 µM [4]: 100%

CC(C)(CO)C(=O)N1CCN(C(=O)c2ccc(/C=C/c3n[nH]c4ccccc34)cc2)CC1 [Compound 72, (E)-4-(3-hydroxy-2,2-dimethylpropionyl)-1-{4-[2-(1H-indazol-3-yl)vinyl]benzoyl}piperazine]
inhibition at 10 µM [1]: 80% | inhibition at 10 µM [2]: 95% | inhibition at 10 µM [3]: 93% | inhibition at 10 µM [4]: 100%

NCC(=O)N1CCN(C(=O)c2ccc(/C=C/c3n[nH]c4ccccc34)cc2)CC1 [Compound 61, (E)-4-aminoacetyl-1-{4-[2-(1H-indazol-3-yl)vinyl]benzoyl}piperazine hydrochloride]
inhibition at 10 µM [1]: 79% | inhibition at 10 µM [2]: 85% | inhibition at 10 µM [3]: 87% | inhibition at 10 µM [4]: 98%

COCCC(=O)N1CCN(C(=O)c2ccc(/C=C/c3n[nH]c4ccccc34)cc2)CC1 [Compound 98, (E)-4-(3-methoxypropionyl)-1-{4-[2-(1H-indazol-3-yl)vinyl]benzoyl}piperazine]
inhibition at 10 µM [1]: 79% | inhibition at 10 µM [2]: 89% | inhibition at 10 µM [3]: 88% | inhibition at 10 µM [4]: 98%

CN(C)C(=O)C1CCN(C(=O)c2ccc(/C=C/c3n[nH]c4ccccc34)cc2)CC1 [Compound 92, (E)-N,N-dimethyl-1-{4-[2-(1H-indazol-3-yl)vinyl]benzoyl}piperidine-4-carboxamide]
inhibition at 10 µM [1]: 88% | inhibition at 10 µM [2]: 89% | inhibition at 10 µM [3]: 89% | inhibition at 10 µM [4]: 98%

CC(C)(O)CC(=O)N1CCN(C(=O)c2ccc(/C=C/c3n[nH]c4ccccc34)cc2)CC1 [Compound 90, (E)-4-(3-methyl-3-hydroxybutyryl)-1-{4-[2-(1H-indazol-3-yl)vinyl]benzoyl}piperazine]
inhibition at 10 µM [1]: 79% | inhibition at 10 µM [2]: 85% | inhibition at 10 µM [3]: 88% | inhibition at 10 µM [4]: 98%

N[C@H]1CCN(C(=O)c2ccc(/C=C/c3n[nH]c4ccccc34)cc2)C1 [Compound 159, (S)-(E)-1-{4-[2-(1H-indazol-3-yl)vinyl]benzoyl}-3-aminopyrrolidine]
inhibition at 10 µM [1]: 86% | inhibition at 10 µM [2]: 93% | inhibition at 10 µM [3]: 92% | inhibition at 10 µM [4]: 99%

CS(=O)(=O)Nc1cc(/C=C/c2n[nH]c3ccccc23)ccc1OCCN1CCOCC1 [Compound 7, (E)-N-{5-[2-(1H-Indazol-3-yl)vinyl]-2-(2-morpholinoethoxy)phenyl}methanesulfonamide]
inhibition at 10 µM [1]: 97% | inhibition at 10 µM [2]: 98% | inhibition at 10 µM [3]: 89% | inhibition at 10 µM [4]: 97%

CNC(=O)c1ccc(/C=C/c2n[nH]c3ccccc23)cc1 [Compound 14, (E)-N-Methyl-4-[2-(1H-indazol-3-yl)vinyl]benzamide]
inhibition at 10 µM [1]: 84% | inhibition at 10 µM [2]: 98% | inhibition at 10 µM [4]: 76%

CN(C)C(=O)c1ccc(/C=C/c2n[nH]c3ccccc23)cc1 [Compound 1, (E)-N,N-Dimethyl-4-[2-(1H-indazol-3-yl)vinyl]benzamide]
inhibition at 10 µM [1]: 93% | inhibition at 10 µM [2]: 95% | inhibition at 10 µM [4]: 98%

NC(=O)c1cc(/C=C/c2n[nH]c3ccccc23)ccc1OCCN1CCOCC1 [Compound 8, (E)-5-[2-(1H-Indazol-3-yl)vinyl]-2-(2-morpholinoethoxy)benzamide]
inhibition at 10 µM [1]: 84% | inhibition at 10 µM [2]: 95% | inhibition at 10 µM [4]: 95%

CC(=O)N1CCN(C(=O)c2ccc(/C=C/c3n[nH]c4ccccc34)cc2)CC1 [Compound 13, (E)-4-Acetyl-1-{4-[2-(1H-indazol-3-yl)vinyl]benzoyl}piperazine]
inhibition at 10 µM [1]: 90% | inhibition at 10 µM [2]: 99% | inhibition at 10 µM [4]: 94%

O=C(c1ccc(/C=C/c2n[nH]c3ccccc23)cc1)N1CCOCC1 [Compound 9, (E)-1{4-[2-(1H-indazol-3-yl)vinyl]benzoyl}morpholine]
cytostatic rate ML-1 (%) (10 μmol/L) [1]: 90% | cytostatic rate K562 (%) (10 μmol/L) [2]: 98% | cytostatic rate MV-4-11 (%) (10 μmol/L) [4]: 91%
